Patent publication US20200276107A1, “Treatment of herpes simplex symptoms on skin and mucous membrane of mammals” (priority 2017, published 2020)

Test system: herpes simplex labialis
Assay: In vivo topical treatment, test group A (four individuals)
Set-up: species or system human
Conditions: common topical medication 5 to 6 times per day
Method: Antiviral performance of the composition of the present invention was evaluated in vivo. The test group A consisted of four individuals suffering from herpes simplex labialis. […] As infections were untreated, the individuals were normally healing in between 7 to 10 days. The time from initiation of the symptoms to when the patients experienced relief of pain from the affected area was between 5 to 7 days. […] The time from initiation of the symptoms to time when the patients experienced relief of pain from the affected area was 3 to 5 days.
The herpes infections of test group were treated topically with a composition containing the polyamine polymer silver complex of the present invention with the following results. The composition was applied topically to the affected areas to cover the cold sores with a coating of the composition two times a day. The time from initiation of the cold sores and treatment with the composition to complete healing averaged between about 2 to 3 days. The time from the initiation of the treatment to when the patients experienced relief of pain from the affected area was about 10 to 15 minutes after the first application.

Nc1nc2c(ncn2COCCO)c(=O)[nH]1 [acyclovir]
time from initiation of the symptoms to relief of pain from the affected area: 3 to 5 days | time to healing: 5 to 7 days
